Legend:
glucocorticoid receptor = molecular target: T1, glucocorticoid receptor (Rattus norvegicus, UniProt P06536); assay: Glucocorticoid receptor assay: inhibition of [3H]-dexamethasone binding, liver cytosol; conditions: for inhibition at 1 µM / inhibition at 0.01 µM: Table 4′; for inhibition at 1 µM: read-out: % Inhibition Glucocorticold Receptor E^−6; for inhibition at 0.01 µM: read-out: % Inhibition Glucocorticold Receptor E^−8
T1 construct: from tissue; host or cells: liver cytosol of male Sprague-Dawley rats
T1 sequence (P06536 1-795): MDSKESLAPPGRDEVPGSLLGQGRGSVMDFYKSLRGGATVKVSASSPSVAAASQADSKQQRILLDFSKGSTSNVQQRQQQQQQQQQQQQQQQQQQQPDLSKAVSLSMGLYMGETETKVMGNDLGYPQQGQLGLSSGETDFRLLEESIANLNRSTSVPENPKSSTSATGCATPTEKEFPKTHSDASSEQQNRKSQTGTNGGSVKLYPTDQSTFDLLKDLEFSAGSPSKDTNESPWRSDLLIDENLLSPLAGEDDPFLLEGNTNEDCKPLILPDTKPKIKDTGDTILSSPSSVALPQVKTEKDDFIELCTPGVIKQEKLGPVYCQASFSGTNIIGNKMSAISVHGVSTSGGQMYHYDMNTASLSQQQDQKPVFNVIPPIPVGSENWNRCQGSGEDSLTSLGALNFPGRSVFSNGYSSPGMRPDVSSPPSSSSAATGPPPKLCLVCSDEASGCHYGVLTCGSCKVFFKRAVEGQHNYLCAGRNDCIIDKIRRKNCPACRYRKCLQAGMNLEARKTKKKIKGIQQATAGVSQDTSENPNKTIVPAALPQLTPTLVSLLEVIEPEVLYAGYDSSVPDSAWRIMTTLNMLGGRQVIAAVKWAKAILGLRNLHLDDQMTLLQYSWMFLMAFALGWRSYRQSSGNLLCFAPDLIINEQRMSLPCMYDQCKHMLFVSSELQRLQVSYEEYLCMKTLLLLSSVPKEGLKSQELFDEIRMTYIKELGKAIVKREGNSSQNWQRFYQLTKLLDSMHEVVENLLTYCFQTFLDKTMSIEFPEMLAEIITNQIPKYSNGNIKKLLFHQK
Method: The manner in which the percentage of inhibition is determined is described in “Other Tests; F-Glucocorticoid Receptor Assay”.
[6,7-^3H(N)]-Dexamethasone (39 Ci/mmol) was purchased from New England Nuclear (Lachine, Québec, Canada) while unlabeled dexametasone was obtained from Steraloids (Wilton, N.H.). All other chemicals were of analytical grade.
Stock solutions of the unlabeled steroids were kept at 4° C. in ethanol. The desired steroid solutions were then prepared by appropriate dilution in buffer B (10 mM Tris-HCl, 1.5 mM EDTA, 10 mM α-monothioglycerol, pH 7.4) containing 30% ethanol.
Male Sprague-Dawley rats weighing 200-300 g were obtained from Charles-River Inc. (St-Constant, Québec, Canada). The rats were killed by cervical dislocation and the liver were rapidly removed, dissected free from adhering tissue and frozen on dry-ice. Tissues were kept at −80° C. until use.
All procedures were performed at 4° C. Tissues were eminced and homogenized in 10 vol (w/v) of buffer A (25 mM Tris-HCl, 1.5 mM EDTA, 10 mM α-monothioglycerol, 10% glycerol, 10 mM sodium molybdate, pH 7.4) using a Polytron PT-10 homogenizer (Brinkmann Instruments, Canada) at a setting of 5 for two periods of 10 sec, with intervals of 10 sec for cooling. The homogenate was then centrifuged at 105,000×g for 90 min. The supernatant was used immediately for assay.
Glucocorticoid binding was measured using the dextran-coated charcoal adsorption technique. Incubations were performed at 0-4° C. for 16-18 h using 100 μl of cytosol, 100 μl of [^3H]-Dexamethasone (5 nM final) and 100 μl of unlabeled compounds at the indicated concentrations. Each concentration was done in triplicate. Assay was ended with 300 μl of DCC (2.5% Norit A and 0.25% Dextran T-70 in Buffer B). After 10 min of incubation, tubes were centrifuged at 2,000×g for 10 min. and decanted in vials with 6 ml of BCS liquid scintillation (New England Nuclear, Dupont). The radioactivity was measured in a Beckman counter at a counting efficiency of 35%.

[1] = In vivo assay of oral bioavailability (plasma AUC 0-7 h by LCMS/MS); set-up: species or system male Sprague Dawley rats; conditions: male, Sprague-Dawley [Crl:CD(SD)Br], 0.5 mg
Method: In column 1, the oral bioavailability of preferred type 5 inhibitors, expressed in ng/mL.h, was determined as described below in “Other Tests, A-In Vivo Assays of Bioavailability of Human Type 5 17β-HSD Inhibitors”. Higher number are desirable. ND means that a determination was not done.
The measurements at various time intervals were for values greater than or equal to 1.0 ng/mL and less than or equal to 50 ng/mL.
Male Sprague-Dawley rats [Crl:CD(SD)Br] weighing 275-350 g were obtained from Charles-River Canada Inc. and housed 2 per cage during the acclimation period and individually during the study period. The animals were maintained under a regimen of 12 hours light: 12 hours dark (lights on at 08:00). Animals received certified Rodent feed (Lab Diet #5002, pellets) and tap water ad libitum. Rats were fasted (access to water only) starting on the evening prior to dosing.
Each compound to be tested was administered to three animals as a suspension in 0.4% methylcellulose by oral gavage at a dose of 0.5 mg/rat (1.0 ml/rat). Four to eight new compounds were tested each day and one group of animals received megestrol acetate (MGA) under the same conditions on each dosing day as a reference. […] Blood samples were immediately transferred into a refrigerated 0.75 ml Microtainer containing EDTA and kept in an ice-water bath until centrifugation at 3000 rpm for 10 minutes. Plasma separation was performed rapidly (less than 50 minutes) after blood collection. One aliquot of 0.25 ml of plasma was then transferred into a borosilicate tube (13×100) and was rapidly frozen on dry-ice. Plasma samples were kept at −80° C. until measurement of plasma concentration of the inhibitor(s) by LCMS/MS.
Aliquots of rat plasma (0.250 mL) were transferred to 13×100 mm borosilicate tubes. Water (1.0 mL) and internal standard solution (0.1 mL) were added to each sample and vortexed for 2 min. A mixture of N-butyl chloride and acetone (v:v, 7:3) (3 mL) was added to each sample and vortexed for 2 min. This step was repeated and the combined organic phases were evaporated to dryness under nitrogen in a Turbo Vap evaporator at 35° C. The residue was reconstituted with 1 mL of methanol and evaporated in a Turbo Vap evaporator at 35° C. The final extract was reconstituted into 0.1 mL of methanol/water (v:v, 75:25) and then transferred into a conical vial for injection into the mass spectrometer.
The assay procedure was performed by analyzing, in duplicate, rat plasma samples spiked at six different Type 5 inhibitor concentrations (1, 2, 5, 10, 20 and 50 ng/mL). The lower limit of quantitation (LOQ) was established at 1.0 ng/mL. Values lower than 1.0 ng/mL were expressed as below limit of quantification (BLQ). […]

Structure (SMILES) | inhibition at 1 µM (glucocorticoid receptor; E^−6) [%] | inhibition at 0.01 µM (glucocorticoid receptor; E^−8) [%] | AUC(0-t) ([1]; Table 4′, oral, rat plasma) [ng·h/mL] | % Inhibition Glucocorticoid Receptor (glucocorticoid receptor; E^−6) [%] | % Inhibition Glucocorticoid Receptor (glucocorticoid receptor; E^−8) [%] | AUC(0-t) ([1]; rat, plasma, po) [ng·h/mL] | % Inhibition Glucocorticoid Receptor (glucocorticoid receptor; * E^−5) | % Inhibition Glucocorticoid Receptor (glucocorticoid receptor; * E^−7)
CC1(C)CC[C@@]2(CCC3C4CCc5cc(C(=O)O)ccc5C4CC[C@@]32C)OC1=O (stereo partly drawn) [EM-1401, 3-Carboxy-1,3,5(10)-estratrien-17(R)-spiro-2′-(5′,5′-dimethyl-6′-oxo)tetrahydropyran] | 2 | 4 | 1630 ± 181 | – | – | – | – | –
CC1(C)CCC2(CCC3C4CCc5cc(O)c([N+](=O)[O-])cc5C4CCC32C)OC1=O (centres unmarked) [EM-1125-CS] | 1 | 0 | 95 ± 6.5 | – | – | – | – | –
COc1ccc(CC(=O)O[C@]2(C(C)=O)CCC3C4C=C(C)C5=CC(=O)C=C[C@]5(C)C4CC[C@@]32C)cc1 (some centres unmarked) [EM-1291] | – | – | – | 69 | 1 | 94 ± 23 | – | –
CCCC(=O)OC1(C(C)=O)CCC2C3C=C(C)C4=CC(=O)CC(C)C4(C)C3CCC21C (centres unmarked) [CS-245] | – | – | – | 43 | 0 | 18 ± 5 | – | –
CC1(C)CCC2(CCC3C4CCc5c(cc(Cl)c(OS(C)(=O)=O)c5Cl)C4CCC32C)OC1=O (centres unmarked) [EM-1392-CS] | 8 | 0 | 305 ± 49 | – | – | – | – | –
CC1(C)CCC2(CCC3C4CCc5cc(OCCN6CCCCC6)ccc5C4CCC32C)OC1=O [EM-1390-CS, 3-(N-piperidyl-ethyl)-1,3,5(10)-estratrien-17(R)-spiro-2′-(5′,5′-dimethyl-6′-oxo)-tetrahydropyran] | 0 | 2 | 401 ± 5 | – | – | – | – | –
COCCOc1cc2c(cc1C#N)C1CC[C@@]3(C)C(CC[C@@]34CCC(C)(C)C(=O)O4)C1CC2 (some centres unmarked) [EM-1396] | 1 | 0 | 196 ± 53 | – | – | – | – | –
COCCOc1cc2c(cc1C(=O)OC)C1CC[C@@]3(C)C(CC[C@@]34CCC(C)(C)C(=O)O4)C1CC2 (stereo partly drawn) [EM-1402-CS, 2-Carbomethoxy-3-(2″-methoxyethyloxy)-1,3,5(10)-estratrien 17(R)-spiro-2′-(5′,5′-dimethyl-6′-oxo)tetrahydropyran] | 7 | 4 | 214 ± 36 | – | – | – | – | –
CC(=O)O[C@]1(C(C)=O)CCC2C3C=C(C)C4=CC(=O)CC[C@]4(C)C3CC[C@@]21C (some centres unmarked) [megestrol acetate, reference compound] | – | – | – | 82 | 0 | 92 ± 17 | 98* % | 17* %
COc1ccc2c(c1)C(=O)CC1C2CC[C@@]2(C)C1CC[C@@]21CCC(C)(C)C(=O)O1 (some centres unmarked) [EM-1394] | 2 | 3 | 1760 ± 69 | – | – | – | – | –
CN(C)CCOc1ccc2c(c1)CCC1C2CCC2(C)C1CCC21CCC(C)(C)C(=O)O1 (centres unmarked) [EM-1389-CS] | 3 | 0 | 169 ± 2 | – | – | – | – | –
COc1c(Br)cc2c(c1Br)CCC1C2CCC2(C)C1CCC21CCC(C)(C)C(=O)O1 (centres unmarked) [EM-1385-CS] | 5 | 0 | 301 ± 36 | – | – | – | – | –
COCCOc1cc2c(cc1Cl)C1CCC3(C)C(CCC34CCC(C)(C)C(=O)O4)C1CC2 (centres unmarked) [EM-1371-CS] | 0 | 1 | 64 ± 21 | – | – | – | – | –
CC(=O)[C@@]1(OC(=O)CCCCF)CCC2C3C=C(C)C4=CC(=O)CC[C@]4(C)C3CC[C@@]21C (some centres unmarked) [EM-1195-CS] | – | – | – | 90 | 3 | 31 ± 5.5 | – | –
CC1CCC2(CCC3C4CCc5cc(O)c([N+](=O)[O-])cc5C4CCC32C)OC1=O [EM-1131, 2-Nitro-1,3,5(10)-estratrien-3-ol-17(R)-spiro-2′-(5′-methyl-6′-oxo)tetrahydropyran] | 0 | 0 | 124 ± 27 | – | – | – | – | –
CCCCN(C)C(=O)[C@@]1(OC(C)=O)CCC2C3C=C(C)C4=CC(=O)CC[C@]4(C)C3CC[C@@]21C (some centres unmarked) [EM-1165] | – | – | – | 26 | 0 | 24 ± 3.6 | – | –
